Assay results reported in publication PMC9841765 (Archives of biochemistry and biophysics, 2020).

Key:
Experiment in all cases: malachite green phosphate release
Assay type in all cases: biochemical
Details in all cases: pH 8.0, 5 mM MgCl2, 200 mM KCl, 37 °C
StNFeoB = StNFeoB (Salmonella enterica, UniProt P74884)
LmNFeoB = LmNFeoB (Listeria monocytogenes, UniProt Q8Y5F9)
SaNFeoB = SaNFeoB (Staphylococcus aureus, UniProt Q5HD01)
PaNFeoB = PaNFeoB (Pseudomonas aeruginosa, UniProt Q9HW43)
BcNFeoB = molecular target: T1, BcNFeoB (Bacillus cereus, UniProt Q72YQ6)
T1 sequence (Q72YQ6 1-269): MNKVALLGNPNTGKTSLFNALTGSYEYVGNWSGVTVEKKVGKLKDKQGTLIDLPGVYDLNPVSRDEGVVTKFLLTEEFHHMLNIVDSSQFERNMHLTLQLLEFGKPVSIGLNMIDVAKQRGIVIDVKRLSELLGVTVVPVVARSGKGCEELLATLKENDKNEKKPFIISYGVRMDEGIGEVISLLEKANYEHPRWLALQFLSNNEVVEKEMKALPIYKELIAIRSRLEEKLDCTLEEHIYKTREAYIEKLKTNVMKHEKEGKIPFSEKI

SmNFeoB = molecular target: T2, SmNFeoB (Streptococcus mutans, UniProt Q8DVC3)
T2 sequence (Q8DVC3 1-273): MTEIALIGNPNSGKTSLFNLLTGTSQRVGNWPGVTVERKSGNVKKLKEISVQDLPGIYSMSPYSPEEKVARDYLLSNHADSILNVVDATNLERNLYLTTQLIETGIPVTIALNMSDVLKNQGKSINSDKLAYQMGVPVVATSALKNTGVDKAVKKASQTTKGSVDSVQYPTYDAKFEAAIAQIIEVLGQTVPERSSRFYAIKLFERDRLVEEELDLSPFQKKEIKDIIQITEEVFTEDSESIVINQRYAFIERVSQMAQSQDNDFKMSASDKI

EcNFeoB = molecular target: T3, EcNFeoB (Escherichia coli, UniProt P33650)
T3 sequence (P33650 1-274): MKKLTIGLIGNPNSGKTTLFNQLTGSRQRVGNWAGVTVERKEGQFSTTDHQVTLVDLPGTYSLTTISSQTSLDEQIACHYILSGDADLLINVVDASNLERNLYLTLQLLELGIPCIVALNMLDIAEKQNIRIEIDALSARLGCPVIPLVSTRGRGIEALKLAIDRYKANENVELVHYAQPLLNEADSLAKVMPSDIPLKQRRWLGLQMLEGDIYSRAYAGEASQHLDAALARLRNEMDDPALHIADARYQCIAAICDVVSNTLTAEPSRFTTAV

SaNFeoB, sequence (Q5HD01 1-272): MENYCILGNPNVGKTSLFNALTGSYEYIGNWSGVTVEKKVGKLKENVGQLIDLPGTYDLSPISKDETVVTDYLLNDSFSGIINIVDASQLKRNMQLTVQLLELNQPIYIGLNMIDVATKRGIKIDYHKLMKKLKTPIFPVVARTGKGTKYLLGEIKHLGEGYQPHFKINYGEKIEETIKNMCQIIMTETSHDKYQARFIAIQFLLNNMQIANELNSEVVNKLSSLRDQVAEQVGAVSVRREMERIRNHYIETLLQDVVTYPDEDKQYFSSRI
StNFeoB, sequence (P74884 1-274): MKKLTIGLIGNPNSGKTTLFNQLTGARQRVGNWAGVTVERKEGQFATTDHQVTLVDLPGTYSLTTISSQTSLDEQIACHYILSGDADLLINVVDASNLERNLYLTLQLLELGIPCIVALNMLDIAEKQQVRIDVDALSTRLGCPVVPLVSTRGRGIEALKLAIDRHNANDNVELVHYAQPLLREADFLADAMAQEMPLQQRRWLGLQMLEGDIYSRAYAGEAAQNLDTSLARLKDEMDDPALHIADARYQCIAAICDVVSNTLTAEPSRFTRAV

Row | SMILES | malachite green phosphate release (StNFeoB) | malachite green phosphate release (LmNFeoB) | malachite green phosphate release (SaNFeoB) | malachite green phosphate release (PaNFeoB) | malachite green phosphate release (BcNFeoB) | malachite green phosphate release (SmNFeoB) | malachite green phosphate release (EcNFeoB)
1 | Nc1nc2c(ncn2[C@@H]2O[C@H](COP(=O)(O)OP(=O)(O)OP(=O)(O)O)[C@@H](O)[C@H]2O)c(=O)[nH]1 [GTP] | S. Typhimurium and P. aeruginosa exhibited only GTP hydrolytic activity | Its GTPase activity was higher than other monovalent cations | the NFeoB activities of S. aureus, S. mutans, and B. cereus | S. Typhimurium and P. aeruginosa exhibited only GTP hydrolytic activity | the NFeoB activities of S. aureus, S. mutans, and B. cereus | the NFeoB activities of S. aureus, S. mutans, and B. cereus | Like E. coli, S. Typhimurium and P. aeruginosa exhibited only GTP hydrolytic activity
2 | Nc1ncnc2c1ncn2[C@@H]1O[C@H](COP(=O)(O)OP(=O)(O)OP(=O)(O)O)[C@@H](O)[C@H]1O [ATP] | – | LmNFeoB exhibited ATP hydrolysis activity similar to the activity of VcNFeoB | the NFeoB activities of S. aureus, S. mutans, and B. cereus | – | the NFeoB activities of S. aureus, S. mutans, and B. cereus | the NFeoB activities of S. aureus, S. mutans, and B. cereus | –
